Here are results for 13 compounds from patent US12509454B2, “Thiadiazolyl derivatives” (IDEAYA Biosciences, Inc., priority 2019, dated 2025).

The experiment addresses Pol theta (1-899) (Homo sapiens (Human), UniProt O75417). Kind of experiment: Pol theta ATPase activity, NADH oxidation-coupled enzymatic assay. The experiment is classed as biochemical. The note with it: Pol theta (1-899) 10 nM, ATP, dT50 ssDNA, absorbance 340 nm, 10-point dilution series; read-out: ATPase NADH coupling:Standard Screening:hPolQ IC50. In outline:
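Pol theta (1-899), 10 nM, preincubated 15 min at RT with 10-point compound series in Tris pH 7.80/KCl/MgCl2 buffer, then given 100 μM ATP plus 300 nM dT50 ssDNA with PK/LDH-coupled NADH oxidation. A340 followed for 30 min; rate slopes fitted with a four-parameter model for IC50.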

Chain of Pol theta (1-899) (O75417 1-899): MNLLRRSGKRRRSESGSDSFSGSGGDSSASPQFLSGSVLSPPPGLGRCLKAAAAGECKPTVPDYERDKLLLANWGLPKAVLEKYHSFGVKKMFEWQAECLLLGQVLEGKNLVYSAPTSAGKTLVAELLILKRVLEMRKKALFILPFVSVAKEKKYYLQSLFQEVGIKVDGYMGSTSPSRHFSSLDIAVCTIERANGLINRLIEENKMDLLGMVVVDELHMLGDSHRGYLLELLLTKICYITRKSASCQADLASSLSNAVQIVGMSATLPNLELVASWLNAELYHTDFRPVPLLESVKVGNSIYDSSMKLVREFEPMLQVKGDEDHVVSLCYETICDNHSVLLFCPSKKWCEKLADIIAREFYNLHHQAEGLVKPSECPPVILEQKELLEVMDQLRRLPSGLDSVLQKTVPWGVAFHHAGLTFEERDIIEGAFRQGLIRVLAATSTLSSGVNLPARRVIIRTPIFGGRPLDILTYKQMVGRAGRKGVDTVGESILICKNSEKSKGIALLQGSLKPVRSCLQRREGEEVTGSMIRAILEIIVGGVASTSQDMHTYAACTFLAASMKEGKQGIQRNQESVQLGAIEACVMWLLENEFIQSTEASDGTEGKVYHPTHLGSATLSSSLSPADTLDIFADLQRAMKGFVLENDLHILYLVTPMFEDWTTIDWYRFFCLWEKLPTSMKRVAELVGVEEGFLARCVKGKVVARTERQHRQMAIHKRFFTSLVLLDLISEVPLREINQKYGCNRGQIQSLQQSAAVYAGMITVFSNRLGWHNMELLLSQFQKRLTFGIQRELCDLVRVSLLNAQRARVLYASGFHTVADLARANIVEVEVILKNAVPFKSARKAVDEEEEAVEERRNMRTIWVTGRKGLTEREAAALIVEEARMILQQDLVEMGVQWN

In the case of `CC1COCCN1c1ncccc1C(=O)Nc1nnc(OCc2ccc(Cl)cc2)s1` (racemic) [Example 5, (R) N-(5-((4-chlorobenzyl)oxy)-1,3,4-thiadiazol-2-yl)-2-(3-methylmorpholino)-nicotinamide and (S)—N-(5-((4-chlorobenzyl)oxy)-1,3,4-thiadiazol-2-yl)-2-(3-methylmorpholino)nicotinamide], the IC50 is 200 to 500 nM.

Turning to `COc1ccccc1-c1cc(C)ncc1C(=O)Nc1nnc(OCc2cnc(Cl)cn2)s1` [Example 212, N-[5-[(5-chloropyrazin-2-yl)methoxy]-1,3,4-thiadiazol-2-yl]-4-(2-methoxyphenyl)-6-methylpyridine-3-carboxamide], the IC50 is at most 200 nM.

With `O=C(Nc1nnc(OCc2ccc(Cl)cn2)s1)c1ccncc1-c1c(F)cccc1OC(F)F` [Example 182, N-(5-((5-chloropyridin-2-yl)methoxy)-1,3,4-thiadiazol-2-yl)-3-(2-(difluoromethoxy)-6-fluorophenyl)isonicotinamide], the IC50 was at most 200 nM.

`O=C(Nc1nnc(OCc2ccc(Cl)cc2)s1)c1ccncc1-c1ccccc1OC(F)F` [Example 100, N-(5-((4-chlorobenzyl)oxy)-1,3,4-thiadiazol-2-yl)-3-(2-(difluoromethoxy)phenyl)isonicotinamide]: the IC50 was at most 200 nM.

As for `N#Cc1ccc(C(=O)Nc2nnc(OCc3ccc(Cl)cc3)s2)c(N2CCOC3(CC3)C2)n1` [Example 44, N-(5-((4-chlorobenzyl)oxy)-1,3,4-thiadiazol-2-yl)-6-cyano-2-(4-oxa-7-azaspiro[2.5]octan-7-yl)nicotinamide], the IC50 was at most 200 nM.

In the case of `COc1cccc(OC)c1-c1ccncc1C(=O)Nc1nnc(OCc2ccc(Cl)cc2)s1` [Example 128, N-(5-((4-chlorobenzyl)oxy)-1,3,4-thiadiazol-2-yl)-4-(2,6-dimethoxyphenyl)nicotinamide], the IC50 lay within 500 to 1000 nM.

As for `CS(=O)(=O)N1CCN(c2ncccc2C(=O)Nc2nnc(OCc3ccc(Cl)cn3)s2)CC1` [Example 23, N-(5-((5-chloropyridin-2-yl)methoxy)-1,3,4-thiadiazol-2-yl)-2-(4-(methylsulfonyl)piperazin-1-yl)nicotinamide], the half-inhibitory concentration (IC50) was 1000 to 10000 nM.

In the case of `O=C(Nc1nnc(OCc2ccc(Cl)cc2)s1)c1cncn1-c1cccnc1` [Example 17, N-(5-((4-chlorobenzyl)oxy)-1,3,4-thiadiazol-2-yl)-1-(pyridin-3-yl)-1H-imidazole-5-carboxamide], the IC50 was 500 to 1000 nM.

For `COc1cc(C#N)ccc1-c1cnccc1C(=O)Nc1nnc(OCc2ccc(Cl)cc2)s1` [Example 127, N-(5-((4-chlorobenzyl)oxy)-1,3,4-thiadiazol-2-yl)-3-(4-cyano-2-methoxyphenyl)isonicotinamide], the IC50 is at most 200 nM.

Take `CCc1ccccc1-c1cnccc1C(=O)Nc1nnc(OCc2ccc(Cl)cc2)s1` [Example 135, N-[5-[(4-chlorophenyl)methoxy]-1,3,4-thiadiazol-2-yl]-3-(2-ethylphenyl)pyridine-4-carboxamide]: the IC50 was at most 200 nM.

With `O=C(Nc1nnc(OCc2ccc(Cl)cn2)s1)c1cncn1-c1ccccn1` [Example 38, N-(5-((5-chloropyridin-2-yl)methoxy)-1,3,4-thiadiazol-2-yl)-1-(pyridin-2-yl)-1H-imidazole-5-carboxamide], the IC50 was in the range of 1000 to 10000 nM.

Regarding `O=C(Nc1nnc(OCc2ccc(Cl)cc2)s1)c1cccnc1-c1cc[nH]c(=O)c1` [Example 74, N-(5-((4-chlorobenzyl)oxy)-1,3,4-thiadiazol-2-yl)-2′-hydroxy-[2,4′-bipyridine]-3-carboxamide or its tautomer N-(5-((4-chlorobenzyl)oxy)-1,3,4-thiadiazol-2-yl)-2′-oxo-1′,2′-dihydro-[2,4′-bipyridine]-3-carboxamide], the IC50 is 500 to 1000 nM.

On to `COc1ccc(-n2cncc2C(=O)Nc2nnc(OCc3ccc(Cl)cc3)s2)cc1` [Example 12, N-(5-((4-chlorobenzyl)oxy)-1,3,4-thiadiazol-2-yl)-1-(4-methoxyphenyl)-1H-imidazole-5-carboxamide], for which the IC50 was in the range of 200 to 500 nM.
